Data published in publication PMC5884652, “New antimicrobial peptide kills drug-resistant pathogens without detectable resistance” (Oncotarget, 2018).
Ends that are not written are not given here.

Experiments:
E. coli [1] = assay: SYTOX-Green uptake; type: cell-based; conditions: E. coli 2 × 10^7 cfu/mL, 1 μM SYTOX-Green, 10 mM sodium phosphate buffer, pH 5.5 and pH 7.4
S. aureus = assay: SYTOX-Green uptake; type: cell-based; conditions: S. aureus 2 × 10^7 cfu/mL, 1 μM SYTOX-Green, 10 mM sodium phosphate buffer
Method: S. aureus CCARM 259237 cells were grown to the mid-log phase and suspended in 10 mM sodium phosphate buffer supplemented with 10% culture medium at pH 7.4 and 37° C, and then washed and suspended (2 × 10^7 cfu/mL) in 10 mM sodium phosphate buffer (pH 7.4) and incubated with 1 μM SYTOX-Green for 20 min in the dark. After the addition of peptides at the appropriate concentrations (1/2 MIC, MIC, 2× MIC, and/or 4× MIC), time-dependent increases in fluorescence, which is caused by the binding of the cationic dye to intracellular nucleic acids, was monitored using a Perkin-Elmer LS55 fluorometer (excitation wavelength, 485 nm; emission wavelength, 520 nm).

E. coli LPS = assay: Peptide-LPS binding affinity assay (dansyl polymyxin B); conditions: LPS 9 µg, 2.5 μM dansyl polymyxin B, 5 mM HEPES buffer pH 7.4, peptide 0.4 to 4 μM
Method: Lipoteichoic acid (LTA) and lipopolysaccharide (LPS) binding affinity assays were performed using a Perkin-Elmer LS55 fluorometer (Waltham, MA, USA). S. aureus LTA and E. coli LPS (9 µg) were incubated with 2.5 μM dansyl-polymyxin B in 5 mM HEPES buffer for 5–10 min at pH 7.4. The CSP-4 peptide was added in 0.4 μM increments from 0.4 to 4 μM. The increase in fluorescence intensity was assessed using a spectrofluorometer at an excitation wavelength of 340 nm and an emission wavelength of 482 nm (Perkin-Elmer LS55).

[2] = type: in vivo; conditions: 30 min; topical, 200 μg/mL, hairless mouse skin, fluorescence microscopy
Method: Topical delivery of rhodamine-labeled CSP-4 was evaluated on hairless mouse skin. Male hairless mice (6 weeks old) bred by Hoshino Laboratory Animals, Inc. (Bandou-shi, Japan) were purchased from Japan SLC, Inc. (Hamamatsu, Japan). After anesthetizing 5 mice per group (3 groups) with isoflurane, rhodamine-labeled CSP-4 (200 μg/mL) was spread on the hairless mouse skin. The skin was then examined for reactions every 5 min for 30 min. Skin tissue was collected and washed once in PBS, fixed in 4% paraformaldehyde for 12 h, dehydrated in 50% and 100% ethanol (2 h each), and washed 3 times in xylene substitute (1 h/wash). Paraffin-embedded samples were cut into 4 μm-thick sections (Microtome; Thermo Scientific, Waltham, MA, USA) and examined under a fluorescence microscope (IX71; Olympus; Tokyo, Japan).
Supplementary Figure 2: Topical application of rhodamine-labeled CSP-4 to the skin of hairless mouse. Mice were anesthetized with isoflurane and immobilized. Rhodamine-labeled CSP-4 (200 μg/ml) was then applied to the skin in a topical spread.
Diffusion of the peptide into the skin was assessed after 5, 10, 15, 20, 25 and 30 min.
Supplementary Figure 3: Observation of GUVs (PE/PG) with peptides. […] Morphological changes and calcein leakage from the GUVs was monitored. GUVs were examined under an inverted fluorescence phase contrast microscope, and images were recoded using a digital CCD camera. […]

E. coli [3] = assay: Membrane depolarization (DiSC3-5); type: cell-based; conditions: ex 622 nm, em 670 nm
Method: The membrane depolarizing activities of the peptides were evaluated in E. coli cells using the membrane potential-sensitive fluorescent dye DiSC3-5 (3,3′-dipropylthiadicarbocyanine iodide). Two batches of bacterial cells (experiment and control) were grown to mid-log phase at 37° C, harvested, and washed three times with buffer A (20 mM glucose, 5 mM HEPES [pH 7.2]). The cells were then resuspended to an A600 of 0.05 in buffer A containing 0.1 M KCl, after which DiSC3-5 was added to a final concentration of […] and the mixture was incubated for 60 min until the fluorescence level stabilized. The peptides were then added to bacterial suspensions, and the changes in fluorescence were continuously recorded (excitation at 622 nm and emission at 670 nm) for 30 min [36].

P. aeruginosa 4007 = assay: microbe, parasite or virus in culture; type: cell-based, Pseudomonas aeruginosa; conditions: pH 7.4 (II); 10 mM sodium phosphate buffer, 10% LB; 37° C, 24 h; mean of 3 experiments
How it was run: (§1)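 Broth microdilution with mid-log bacteria at 5 × 10^5 cfu/mL in 10 mM sodium phosphate (pH 5.5 or 7.4) plus 10% medium. Peptides were tested at 0.25–128 μM and antibiotics at 0.25–256 μM in 2-fold dilutions, incubated 24 h at 37 °C. MIC was read at 600 nm, as the mean of three triplicate experiments.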

P. aeruginosa 3547 = assay: microbe, parasite or virus in culture; type: cell-based, Pseudomonas aeruginosa; conditions: pH 7.4 (II); 10 mM sodium phosphate buffer, 10% LB; 37° C, 24 h; mean of 3 experiments
How it was run: as §1

P. aeruginosa 3543 = assay: microbe, parasite or virus in culture; type: cell-based, Pseudomonas aeruginosa; conditions: pH 7.4 (II); 10 mM sodium phosphate buffer, 10% LB; 37° C, 24 h; mean of 3 experiments
How it was run: as §1

FLRFIGSVKHGKGHLVHHIGVAL-NH2 [CSP-4]
Membrane disruption (SYTOX-Green fluorescence) (E. coli [1]): dose-dependent increase in fluorescence intensity
Membrane disruption (SYTOX-Green fluorescence) (S. aureus): dose-dependent increase in fluorescence intensity
Binding to LPS (fluorescence of dansyl polymyxin B) (E. coli LPS): dose-dependent increase in fluorescence intensity
Depth of penetration into skin [2]: 25–40 μm
Membrane depolarization (DisC3–5 fluorescence) (E. coli [3]): dose-dependent disruption and resultant depolarization
MIC (P. aeruginosa 4007): 2 µM
MIC (P. aeruginosa 3547): 4 µM
MIC (P. aeruginosa 3543): 4 µM
